Target: T1, 5-hydroxytryptamine receptor 1A (Homo sapiens) (UniProt P08908)
T1 sequence (whole entry): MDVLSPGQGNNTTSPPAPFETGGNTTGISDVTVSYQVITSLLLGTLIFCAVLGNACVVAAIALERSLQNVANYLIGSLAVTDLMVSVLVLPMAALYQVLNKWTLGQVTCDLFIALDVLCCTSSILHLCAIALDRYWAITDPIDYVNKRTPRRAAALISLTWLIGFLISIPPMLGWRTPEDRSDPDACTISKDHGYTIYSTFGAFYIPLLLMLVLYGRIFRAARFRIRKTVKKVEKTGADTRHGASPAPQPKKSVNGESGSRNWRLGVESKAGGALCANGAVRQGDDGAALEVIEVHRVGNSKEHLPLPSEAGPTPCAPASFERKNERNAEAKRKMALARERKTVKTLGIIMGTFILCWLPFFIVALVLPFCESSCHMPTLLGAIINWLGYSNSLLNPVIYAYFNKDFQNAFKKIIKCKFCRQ
Experiment: 5-HT1A (h) Eurofins-Cerep binding assay
Set-up: ligand concentration 0.5 nM
Settings: filed as agonist, Compound concentration 10.0 uM

## CCOc1ccc(S(=O)(=O)Nc2ccc(Cl)cc2C#Cc2cnc(C(=O)O)cc2OC)c2ncccc12 [MSC-4381]
  % Inhibition of Control Specific Binding (Mean n=2): -58.9%

Reference: ChEMBL document CHEMBL4800726, “Data for DCP probe MSC-4381” (2021)
